We go through 2 compounds from PMC8179002, “Inhibitors of thiol-mediated uptake” (Chemical Science, 2020).

In the test the test system is pseudo-lentivectors that express the D614G mutant of the SARS-CoV-2 spike protein. Type of test: cell-based.

Consider `CCN1C(=O)C2SSSSC1C(=O)N2CC(=O)O` (centres unmarked) [compound 3], for which the “Concentration at onset of inhibition of pseudo-lentivector entry” value came out at 50 µM.
As for `O=S1(=O)C[C@H](O)[C@H](O)CS1` [compound 16], the IC50 (as a rule, the concentration that inhibits the measured activity by half) (read-out: IC50, inhibition of pseudo-lentivector entry) was roughly 50 µM.
